# Test results reported in patent publication US12011444B2, “N-substituted indole derivatives as PGE2 receptor modulators” (Idorsia Pharmaceuticals Ltd, priority 2015, dated 2024).
# How the values were obtained:
# EP2 = EP2 (Homo sapiens (Human), UniProt P43116);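 note: antagonism of PGE2-stimulated cAMP accumulation in SF295 human glioblastoma cells with endogenous EP2, cAMP read by HTRF, expressed relative to DMSO control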
# Excerpt: Human tumor cell lines expressing endogenously either EP4 or EP2 are used and cAMP accumulation in cells upon PGE2 stimulation is monitored. SF295 glioblastoma cells express high endogenous EP2 and no EP4, whereas BT549 breast cancer cells, express high endogenous EP4 levels and very low EP2 levels.
# As a detection method for cAMP the HTRF (homogeneous time resolved fluorescence) Cisbio kit (HTRF cAMP dynamic 2 kit 20′000 tests Cisbio Cat. #62AM4PEC) was used, which is based on a competitive immunoassay using a Cryptate-labeled anti-cAMP antibody and d2-labeled cAMP. Native cAMP produced by cells or unlabeled cAMP (for the standard curve) compete with exogenously added d2-labeled cAMP (acceptor) for binding to monoclonal anti-cAMP-Eu3+Cryptate (donor). A FRET signal (Fluorescence Resonance Energy Transfer) is obtained only if the labeled anti-cAMP antibody binds the d2 labelled cAMP, thus the specific signal (i.e. energy transfer) is inversely proportional to the concentration of cAMP in the standard or sample.
# The SF295 cells (NCI/No. 0503170) are detached from culture dishes with a cell dissociation buffer (Invitrogen, 13151-014), and collected in growing medium (GM: RPM11640 (Invitrogen 21875)/10% FCS, 1% Penicilin/streptomycin). Cells are counted washed and resuspended in assay buffer (AB; HBSS, 20 mM HEPES, 0.2% BSA; 2 mM IBMX). 4,000 cells in 5 μl of AB are seeded per well of a small volume 384 well plate (black with flat bottom, Greiner 784076).
# PGE2 (Cayman 14010, stock solution: 75 μM in DMSO) is used as agonist at 75 nM final concentration, corresponding to EC80.
# Two point five microliters of diluted compounds are transferred into the assay plate. Plate is pre-incubated 45 minutes at room temperature. Subsequently, 2.5 microliters of PGE2 (final conc. 75 nM) are transferred into the assay plate. Plate is incubated 30 minutes at room temperature. Five μl of each donor (anti-cAMP cryptate) and acceptor (cAMP-d2) are added and the plate is incubated another hour at room temperature in the dark and then read using a BMG LABTECH PHERAstar reader (Excitation: 337 nm, Emission: 620 and 665 nm).
# The obtained Delta F (fluorescence) values (665 nm/620 nM) are converted into % cAMP values using the measurements of the cAMP calibrator provided in the kit. For each compound concentration the percentage of cAMP compared to DMSO control value as average±STDEV (each concentration is measured in duplicate) is calculated.
# IC50 values and curves are generated with XLfit software (IDBS) using Dose-Response One Site model 203. When compounds were measured multiple times, mean values are given.
# EP4 = EP4 (Homo sapiens (Human), UniProt P35408); assay: hEP4 cAMP assay (BT549 breast cancer cells, HTRF cAMP); format: cell-based; conditions: antagonistic activity; mean values where measured multiple times
# Procedure: Plate is pre-incubated 45 minutes at room temperature. Subsequently, 2.5 microliters of PGE2 (final conc. 6 nM) are transferred into the assay plate. Plate is incubated 30 minutes at room temperature.
# Sequence of EP2 (P43116 whole entry): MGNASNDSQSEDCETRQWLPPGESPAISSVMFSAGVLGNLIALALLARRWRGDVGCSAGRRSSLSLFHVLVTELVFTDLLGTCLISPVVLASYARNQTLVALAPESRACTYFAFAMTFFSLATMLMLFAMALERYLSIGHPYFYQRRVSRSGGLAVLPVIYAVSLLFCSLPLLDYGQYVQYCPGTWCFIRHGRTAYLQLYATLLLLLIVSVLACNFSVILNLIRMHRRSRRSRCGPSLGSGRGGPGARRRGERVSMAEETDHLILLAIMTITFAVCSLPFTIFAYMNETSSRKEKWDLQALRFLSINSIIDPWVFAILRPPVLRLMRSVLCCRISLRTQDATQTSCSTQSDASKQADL
# Sequence of EP4 (P35408 whole entry): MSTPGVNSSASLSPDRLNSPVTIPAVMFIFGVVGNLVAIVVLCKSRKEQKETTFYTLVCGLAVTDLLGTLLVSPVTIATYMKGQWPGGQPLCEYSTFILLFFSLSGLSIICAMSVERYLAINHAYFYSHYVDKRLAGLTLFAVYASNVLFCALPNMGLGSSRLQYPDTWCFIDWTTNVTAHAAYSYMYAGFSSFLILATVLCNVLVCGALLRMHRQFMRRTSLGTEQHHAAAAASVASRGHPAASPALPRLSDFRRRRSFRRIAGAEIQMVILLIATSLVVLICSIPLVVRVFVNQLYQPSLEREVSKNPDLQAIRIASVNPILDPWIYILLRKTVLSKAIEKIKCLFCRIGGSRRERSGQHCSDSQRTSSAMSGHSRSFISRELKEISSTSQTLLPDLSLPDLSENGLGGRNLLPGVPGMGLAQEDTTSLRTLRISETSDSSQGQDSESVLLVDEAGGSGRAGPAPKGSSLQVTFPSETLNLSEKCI
SMILES,IC50 (EP2) [nM],IC50 (EP4) [nM]
CCCOc1cc(-c2cc(NCCn3c(C)cc4c(OC)cc(F)cc43)ncn2)sc1C(=O)O [compound 674],2,6
COc1ccc(F)c2c1cc(C)n2CCNc1cc(-c2cc(OC(C)C)c(C(=O)O)s2)ncn1 [compound 675],4,7
COc1cc(F)cc2c1cc(C)n2CCNc1cc(-c2cc(OC(C)C)c(C(=O)O)s2)ncn1 [compound 676],3,9
CCCOc1cc(-c2cc(NCCn3c(C)cc4c(OC)ccc(F)c43)ncn2)sc1C(=O)O [compound 677],2,12
"COc1cc(F)c(F)c2c1cc(C)n2CCNc1cc(-c2ccc(-c3noc(=O)[nH]3)cc2)ncn1 [compound 678, 3-(4-{6-[2-(6,7-Difluoro-4-methoxy-2-methyl-indol-1-yl)-ethylamino]-pyrimidin-4-yl}-phenyl)-4H-[1,2,4]oxadiazol-5-one]",33,40
"COc1cc(Cl)cc2c1cc(C)n2CCNc1cc(-c2ccc(-c3noc(=O)[nH]3)cc2)ncn1 [compound 679, 3-(4-{6-[2-(6-Chloro-4-methoxy-2-methyl-indol-1-yl)-ethylamino]-pyrimidin-4-yl}-phenyl)-4H-[1,2,4]oxadiazol-5-one]",20,95
Cc1cc(F)c(F)c2c1cc(C)n2CCNc1cc(-c2ccc(-c3noc(=O)[nH]3)cc2)ncn1 [compound 680],56,113
"Cc1cc2c(Cl)cc(Cl)cc2n1CCNc1cc(-c2ccc(-c3noc(=O)[nH]3)cc2)ncn1 [compound 681, 3-(4-{6-[2-(4,6-Dichloro-2-methyl-indol-1-yl)-ethylamino]-pyrimidin-4-yl}-phenyl)-4H-[1,2,4]oxadiazol-5-one]",14,247
"Cc1cc2c(F)c(F)cc(F)c2n1CCNc1cc(-c2ccc(-c3noc(=O)[nH]3)cc2)ncn1 [compound 682, 3-(4-{6-[2-(4,5,7-Trifluoro-2-methyl-indol-1-yl)-ethylamino]-pyrimidin-4-yl}-phenyl)-4H-[1,2,4]oxadiazol-5-one]",12,251
"COc1cc(-c2cc(NCCn3c(C)cc4c(OC)ccc(F)c43)ncn2)ccc1-c1nnn[nH]1 [compound 683, [2-(7-Fluoro-4-methoxy-2-methyl-indol-1-yl)-ethyl]-{6-[3-methoxy-4-(1H-tetrazol-5-yl)-phenyl]-pyrimidin-4-yl}-amine]",6,162
"COc1cc(-c2cc(NCCn3c(C)cc4c(OC)ccc(Cl)c43)ncn2)ccc1-c1nnn[nH]1 [compound 684, [2-(7-Chloro-4-methoxy-2-methyl-indol-1-yl)-ethyl]-{6-[3-methoxy-4-(1H-tetrazol-5-yl)-phenyl]-pyrimidin-4-yl}-amine]",36,471
"Cc1cc(F)cc2c1cc(C)n2CCNc1cc(-c2ccc(-c3ncno3)cc2)ncn1 [compound 685, [2-(6-Fluoro-2,4-dimethyl-indol-1-yl)-ethyl]-[6-(4-[1,2,4]oxadiazol-5-yl-phenyl)-pyrimidin-4-yl]-amine]",6,109
Cc1nc2cc(-c3cc(NCCn4c(C)cc5c(C)ccc(F)c54)ncn3)ccc2o1 [compound 686],239,842
COc1cc(F)cc2c1cc(C)n2CCNc1cc(-c2ccc3oc(C)nc3c2)ncn1 [compound 687],91,778
COc1ccc(F)c2c1cc(C)n2CCNc1cc(-c2ccc3oc(C)nc3c2)ncn1 [compound 688],80,680
COc1ccc(F)c2c1cc(C)n2CCNc1cc(-c2cc(Cl)c(C(=O)O)c(OCC(C)C)c2)ncn1 [compound 690],5,35
COc1cccc2c1cc(C)n2CCNc1cc(-c2cc(Cl)c(C(=O)O)c(OCC(C)C)c2)ncn1 [compound 691],4,177
COc1cc(F)cc2c1cc(C)n2CCNc1cc(-c2cc(Cl)c(C(=O)O)c(OCC(C)C)c2)ncn1 [compound 692],7,64
Cc1cc(F)cc2c1cc(C)n2CCNc1cc(-c2cc(Cl)c(C(=O)O)c(OCC(C)C)c2)ncn1 [compound 693],20,234
Cc1cc(F)c(F)c2c1cc(C)n2CCNc1cc(-c2cc(Cl)c(C(=O)O)c(OCC(C)C)c2)ncn1 [compound 694],49,120
"Cc1cc2ccccc2n1CCNc1cc(-c2ccc3[nH]ccc3c2)ncn1 [compound 695, [6-(1H-Indol-5-yl)-pyrimidin-4-yl]-[2-(2-methyl-indol-1-yl)-ethyl]-amine]",4,999

SMILES,IC50 (EP2) [nM],IC50 (EP4) [nM]
"Cc1cc(F)c(F)c2c1cc(C)n2CCNc1cc(-c2ccc3[nH]ccc3c2)ncn1 [compound 696, [2-(6,7-Difluoro-2,4-dimethyl-indol-1-yl)-ethyl]-[6-(1H-indol-5-yl)-pyrimidin-4-yl]-amine]",42,131
"Cc1cc(F)cc2c1cc(C)n2CCNc1cc(-c2ccc3[nH]ccc3c2)ncn1 [compound 697, [2-(6-Fluoro-2,4-dimethyl-indol-1-yl)-ethyl]-[6-(1H-indol-5-yl)-pyrimidin-4-yl]-amine]",15,77
"Cc1ccc(F)c2c1cc(C)n2CCNc1cc(-c2ccc3[nH]ccc3c2)ncn1 [compound 698, [2-(7-Fluoro-2,4-dimethyl-indol-1-yl)-ethyl]-[6-(1H-indol-5-yl)-pyrimidin-4-yl]-amine]",21,79
"COc1cc(F)cc2c1cc(C)n2CCNc1cc(-c2ccc3[nH]ccc3c2)ncn1 [compound 699, [2-(6-Fluoro-4-methoxy-2-methyl-indol-1-yl)-ethyl]-[6-(1H-indol-5-yl)-pyrimidin-4-yl]-amine]",9,63
"COc1ccc(F)c2c1cc(C)n2CCNc1cc(-c2ccc3[nH]ccc3c2)ncn1 [compound 700, [2-(7-Fluoro-4-methoxy-2-methyl-indol-1-yl)-ethyl]-[6-(1H-indol-5-yl)-pyrimidin-4-yl]-amine]",7,44
"COc1cc(F)c(F)c2c1cc(C)n2CCNc1cc(-c2ccc3[nH]ccc3c2)ncn1 [compound 701, [2-(6,7-Difluoro-4-methoxy-2-methyl-indol-1-yl)-ethyl]-[6-(1H-indol-5-yl)-pyrimidin-4-yl]-amine]",15,24
Cc1cc(F)c(F)c2c1cc(C)n2CCNc1cc(-c2ccc3c(ccn3C)c2)ncn1 [compound 702],165,225
"Cc1ccc(F)c2c1cc(C)n2CCNc1cc(-c2ccc3c(ccn3C)c2)ncn1 [compound 704, [2-(7-Fluoro-2,4-dimethyl-indol-1-yl)-ethyl]-[6-(1-methyl-1H-indol-5-yl)-pyrimidin-4-yl]-amine]",47,177
"COc1cc(F)cc2c1cc(C)n2CCNc1cc(-c2ccc3c(ccn3C)c2)ncn1 [compound 705, [2-(6-Fluoro-4-methoxy-2-methyl-indol-1-yl)-ethyl]-[6-(1-methyl-1H-indol-5-yl)-pyrimidin-4-yl]-amine]",21,80
"COc1ccc(F)c2c1cc(C)n2CCNc1cc(-c2ccc3c(ccn3C)c2)ncn1 [compound 706, [2-(7-Fluoro-4-methoxy-2-methyl-indol-1-yl)-ethyl]-[6-(1-methyl-1H-indol-5-yl)-pyrimidin-4-yl]-amine]",10,55
"COc1cc(F)c(F)c2c1cc(C)n2CCNc1cc(-c2ccc3c(ccn3C)c2)ncn1 [compound 707, [2-(6,7-Difluoro-4-methoxy-2-methyl-indol-1-yl)-ethyl]-[6-(1-methyl-1H-indol-5-yl)-pyrimidin-4-yl]-amine]",38,57
"COc1cc(F)cc2c1cc(C)n2CCNc1cc(-c2ccc(C(=O)CC#N)cc2)ncn1 [compound 709, 3-(4-{6-[2-(6-Fluoro-4-methoxy-2-methyl-indol-1-yl)-ethylamino]-pyrimidin-4-yl}-phenyl)-3-oxo-propionitrile]",14,535
"COc1ccc(F)c2c1cc(C)n2CCNc1cc(-c2ccc(C(=O)CC#N)cc2)ncn1 [compound 710, 3-(4-{6-[2-(7-Fluoro-4-methoxy-2-methyl-indol-1-yl)-ethylamino]-pyrimidin-4-yl}-phenyl)-3-oxo-propionitrile]",15,373
"COc1cc(F)c(F)c2c1cc(C)n2CCNc1cc(-c2ccc(C(=O)CC#N)cc2)ncn1 [compound 711, 3-(4-{6-[2-(6,7-Difluoro-4-methoxy-2-methyl-indol-1-yl)-ethylamino]-pyrimidin-4-yl}-phenyl)-3-oxo-propionitrile]",16,429
Cc1cc(-c2ccc(-c3cc(NCCn4c(C)cc5c(C)cc(F)cc54)ncn3)cc2)on1 [compound 713],73,267
Cc1cc(-c2ccc(-c3cc(NCCn4c(C)cc5c(C)ccc(F)c54)ncn3)cc2)on1 [compound 714],72,958
"COc1cc(F)cc2c1cc(C)n2CCNc1cc(-c2ccc(-c3cc(C)no3)cc2)ncn1 [compound 715, [2-(6-Fluoro-4-methoxy-2-methyl-indol-1-yl)-ethyl]-{6-[4-(3-methyl-isoxazol-5-yl)-phenyl]-pyrimidin-4-yl}-amine]",16,240
"COc1ccc(F)c2c1cc(C)n2CCNc1cc(-c2ccc(-c3cc(C)no3)cc2)ncn1 [compound 716, [2-(7-Fluoro-4-methoxy-2-methyl-indol-1-yl)-ethyl]-{6-[4-(3-methyl-isoxazol-5-yl)-phenyl]-pyrimidin-4-yl}-amine]",12,510
COc1cc(F)c(F)c2c1cc(C)n2CCNc1cc(-c2ccc(-c3cc(C)no3)cc2)ncn1 [compound 717],242,527
Cc1cnoc1-c1ccc(-c2cc(NCCn3c(C)cc4c(C)cc(F)c(F)c43)ncn2)cc1 [compound 719],223,389
